In patent US12667557B2, “Method for treating EGFR-TKI-resistant non-small cell lung cancer by administration of anti-HER3 antibody-drug conjugate” (priority 2017, dated 2026):

Key:
topoisomerase I = biological target: T1, topoisomerase I (Homo sapiens, UniProt P11387); settings: Ogitani Y. et al., Clinical Cancer Research, 2016; 22(20):5097-5108; cited from earlier work
T1 sequence (P11387 1-765): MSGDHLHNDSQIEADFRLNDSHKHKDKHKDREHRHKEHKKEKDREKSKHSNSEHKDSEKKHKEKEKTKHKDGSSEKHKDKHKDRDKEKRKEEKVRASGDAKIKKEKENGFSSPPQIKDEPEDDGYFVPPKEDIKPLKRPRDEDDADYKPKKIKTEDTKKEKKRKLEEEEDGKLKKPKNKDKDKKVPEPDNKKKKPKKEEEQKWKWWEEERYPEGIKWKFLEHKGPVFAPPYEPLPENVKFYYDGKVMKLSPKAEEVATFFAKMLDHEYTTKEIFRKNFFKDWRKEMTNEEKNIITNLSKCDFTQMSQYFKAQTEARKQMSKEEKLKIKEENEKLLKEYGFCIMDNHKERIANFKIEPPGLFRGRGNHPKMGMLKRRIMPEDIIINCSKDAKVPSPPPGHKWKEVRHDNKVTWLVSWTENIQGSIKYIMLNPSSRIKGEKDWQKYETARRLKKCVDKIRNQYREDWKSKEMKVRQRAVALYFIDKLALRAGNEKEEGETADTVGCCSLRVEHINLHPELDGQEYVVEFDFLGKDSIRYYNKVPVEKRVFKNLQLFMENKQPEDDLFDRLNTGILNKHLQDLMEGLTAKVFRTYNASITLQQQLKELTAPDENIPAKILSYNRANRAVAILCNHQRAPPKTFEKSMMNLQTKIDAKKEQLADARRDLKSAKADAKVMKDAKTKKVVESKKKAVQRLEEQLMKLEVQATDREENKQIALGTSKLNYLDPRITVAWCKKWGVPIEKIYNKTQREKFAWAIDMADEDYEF

[1] = test system: cell strain PC9AZDR7 transplanted in nude mice; assay: Antitumor effect of combination of HER3-ADC (1) and osimertinib on cell strain PC9AZDR7 transplanted in nude mice; format: in vivo, nude mice (BALB/cAJcl-nu/nu); settings: for Estimated tumor volume Average value: HER3-ADC (1) 1 mg/kg i.p. on Day 1, osimertinib 1 mg/kg oral Days 1-5, 8-12, 15-19; for Tumor growth inhibition ratio (%): compared with the control group, HER3-ADC (1) 1 mg/kg i.p., osimertinib 1 mg/kg oral
Description: Cell strain PC9AZDR7 was cultured in RPMI1640 medium (manufactured by Sigma-Aldrich Corp.) containing 10% fetal bovine serum and 1% penicillin-streptomycin B (manufactured by Wako Pure Chemical Industries, Ltd.) and 100 nM osimertinib. After cell strain PC9AZDR7 was cultured, the cells were detached by trypsin treatment and then collected. […] From the next day of grouping (1st day), drug administration was initiated. […] As a control group, a group not receiving any administration was established. […] After the initiation of administration, the tumor diameters (major axis and minor axis) were measured twice a week, and the estimated tumor volume in each group was calculated according to the following formula. Subsequently, the average value of the estimated tumor volume for each group was calculated. […] The tumor growth inhibition ratio of each group compared with the control group was calculated using the following formula.

cell strain PC9AZDR7 = assay: Cell proliferation suppressing activity of osimertinib against cell strain PC9AZDR7; format: cell-based, human; settings: 1 μM or lower concentrations of osimertinib; 3rd day of treatment
Description: (§1) Cell strains PC9 and PC9AZDR7 were cultured in RPMI1640 medium (manufactured by Sigma-Aldrich Corp.) containing 10% fetal bovine serum and 1% penicillin-streptomycin B (manufactured by Wako Pure Chemical Industries, Ltd.). PC9AZDR7 was cultured with 100 nM osimertinib added to the medium. After cell strains PC9 and PC9AZDR7 were cultured, the cells were detached by trypsin treatment and then collected. […] Subsequently, 50 μL of each cell suspension was added into each well of SUMILON 96-well plate (manufactured by Sumitomo Bakelite Co., Ltd.) (10,000 cells/well), and culture was carried out. One day after the initiation of culture, osimertinib dilutions, each of which was prepared to have one of various concentrations, or as a negative control, RPMI-1640 medium not containing any drug was added, and culture was carried out. […] The plate was left to stand for 30 minutes under light-shielded conditions. […] The cell proliferation suppressing activity (% of control) of each drug was calculated using the following formula. % of Control=(Average luminescence value in specimen-added wells÷average luminescence value in negative control wells)×100

cell strain PC9 = assay: Cell proliferation suppressing activity of osimertinib against cell strain PC9; format: cell-based, human; settings: 0.01 μM or higher concentrations of osimertinib; 3rd day of treatment
Description: as §1

Compound	topoisomerase I inhibitory activity (topoisomerase I)	Estimated tumor volume Average value ([1]; Day 0) [mm^3]	Tumor growth inhibition ratio (%) ([1]; Day 0)	Estimated tumor volume Average value ([1]; Day 5) [mm^3]	Tumor growth inhibition ratio (%) ([1]; Day 5)	Estimated tumor volume Average value ([1]; Day 8) [mm^3]	Tumor growth inhibition ratio (%) ([1]; Day 8)	Estimated tumor volume Average value ([1]; Day 11) [mm^3]	Tumor growth inhibition ratio (%) ([1]; Day 11)	Estimated tumor volume Average value ([1]; Day 16) [mm^3]	Tumor growth inhibition ratio (%) ([1]; Day 16)	Estimated tumor volume Average value ([1]; Day 18) [mm^3]	Tumor growth inhibition ratio (%) ([1]; Day 18)	Estimated tumor volume Average value ([1]; Day 21) [mm^3]	Tumor growth inhibition ratio (%) ([1]; Day 21)	cell proliferation suppressing activity (cell strain PC9AZDR7)	cell proliferation suppressing activity (cell strain PC9)
CC[C@@]1(O)C(=O)OCc2c1cc1n(c2=O)Cc2c-1nc1cc(F)c(C)c3c1c2[C@@H](NC(=O)CO)CC3	confirmed to have a topoisomerase I inhibitory activity	–	–	–	–	–	–	–	–	–	–	–	–	–	–	–	–
C=CC(=O)Nc1cc(Nc2nccc(-c3cn(C)c4ccccc34)n2)c(OC)cc1N(C)CCN(C)C [Osimertinib, osimertinib]	–	64.2	5.3	249.3	6.0	271.7	5.8	357.2	17.9	533.4	6.7	650.7	9.8	710.6	27.7	no cell proliferation suppressing activity was observed	Strong cell proliferation suppressing activities
